Test system: panel of 55 breast cancer cell lines
Assay: Cell growth inhibition assay (Cell Titer Glo, 72 h, 9 doses; GI50, TGI, LC50)
Type: cell-based, human
Details: value is the negative log10 of mol/L
[1] = BT474 cell line, censored GI50 values
[2] = BT483 cell line, censored GI50 values
[3] = CAMA1 cell line, censored GI50 values
[4] = HCC38 cell line, censored GI50 values
[5] = HCC70 cell line, censored GI50 values
[6] = HCC1143 cell line, censored GI50 values
[7] = HCC1187 cell line, censored GI50 values
[8] = HCC1395 cell line, censored GI50 values
[9] = HCC1428 cell line, censored GI50 values
[10] = HCC1500 cell line, censored GI50 values
[11] = HCC1954 cell line, censored GI50 values
[12] = HCC2185 cell line, censored GI50 values
[13] = HCC3153 cell line, censored GI50 values
[14] = MDAMB134VI cell line, censored GI50 values
[15] = MDAMB175VII cell line, censored GI50 values
[16] = MDAMB453 cell line, censored GI50 values
[17] = MDAMB468 cell line, censored GI50 values
[18] = SKBR3 cell line, censored GI50 values
[19] = SUM149PT cell line, censored GI50 values
[20] = SUM1315MO2 cell line, censored GI50 values

`CC(C)Oc1ccc(C(=O)N[C@H](CNC(=O)CN(C)C)Cc2ccc(-c3cn4cccc([C@H](C)O)c4n3)cc2)cc1Cl` [GSK923295] was tested, and the GI50 (AU565 cell line, censored GI50 values) was 7.62, the GI50 [1] was 5.42 and the GI50 [2] was 6.44. It also gave a GI50 [3] of 7.33, a GI50 [4] of 7.32 and a GI50 [5] of 7.68. It also gave a GI50 (HCC202 cell line, censored GI50 values) of 7.77, a GI50 [6] of 6.77 and a GI50 [7] of 7.52. It also gave a GI50 [8] of 7.33, a GI50 (HCC1419 cell line, censored GI50 values) of 5.72 and a GI50 [9] of 5.21. The GI50 [10] was 7.28, the GI50 (HCC1806 cell line, censored GI50 values) was 7.34 and the GI50 (HCC1937 cell line, censored GI50 values) was 7.20. It also gave a GI50 [11] of 7.62, a GI50 [12] of 7.43 and a GI50 [13] of 7.22. It also gave a GI50 (MCF7 cell line, censored GI50 values) of 5.90, a GI50 [14] of 5.50 and a GI50 (MDAMB157 cell line, censored GI50 values) of 7.50. For the same molecule, the GI50 [15] was 6.76, the GI50 (MDAMB231 cell line, censored GI50 values) was 7.34 and the GI50 (MDAMB361 cell line, censored GI50 values) was 7.42. For the same molecule, the GI50 (MDAMB415 cell line, censored GI50 values) was 7.28, the GI50 (MDAMB436 cell line, censored GI50 values) was 7.59 and the GI50 [16] was 6.96. It also gave a GI50 [17] of 7.61, a GI50 [18] of 7.34 and a GI50 [19] of 7.17. The GI50 (SUM159PT cell line, censored GI50 values) was 7.43, the GI50 (SUM185PE cell line, censored GI50 values) was 5.42 and the GI50 [20] was 7.44. The GI50 (cell line 600MPE) was 4.48, the GI50 (cell line AU565) was 7.62 and the GI50 (cell line BT474) was 5.42. It also gave a GI50 (cell line BT483) of 6.44, a GI50 (cell line CAMA1) of 7.33 and a GI50 (cell line HCC38) of 7.32. It also gave a GI50 (cell line HCC70) of 7.68, a GI50 (cell line HCC202) of 7.77 and a GI50 (cell line HCC1143) of 6.77. It also gave a GI50 (cell line HCC1187) of 7.52, a GI50 (cell line HCC1395) of 7.33 and a GI50 (cell line HCC1419) of 5.72. It also gave a GI50 (cell line HCC1428) of 5.21, a GI50 (cell line HCC1500) of 7.28 and a GI50 (cell line HCC1806) of 7.34. The GI50 (cell line HCC1937) was 7.20, the GI50 (cell line HCC1954) was 7.62 and the GI50 (cell line HCC2185) was 7.43. For the same molecule, the GI50 (cell line HCC3153) was 7.22, the GI50 (cell line MCF7) was 5.90 and the GI50 (cell line MDAMB134V) was 5.50. It also gave a GI50 (cell line MDAMB157) of 7.50, a GI50 (cell line MDAMB175V) of 6.76 and a GI50 (cell line MDAMB231) of 7.34. For the same molecule, the GI50 (cell line MDAMB361) was 7.42, the GI50 (cell line MDAMB415) was 7.28 and the GI50 (cell line MDAMB436) was 7.59. For the same molecule, the GI50 (cell line MDAMB453) was 6.96, the GI50 (cell line MDAMB468) was 7.61 and the GI50 (cell line SKBR3) was 7.34. For the same molecule, the GI50 (cell line SUM52PE) was 7.64, the GI50 (cell line SUM149PT) was 7.17 and the GI50 (cell line SUM159PT) was 7.43. For the same molecule, the GI50 (cell line SUM185PE) was 5.42, the GI50 (cell line SUM1315MO) was 7.44 and the GI50 (cell line UACC812) was 7.92. For the same molecule, the GI50 (cell line UACC893) was 7.91, the GI50 (cell line ZR75B) was 7.15 and the GI50 (cell line ZR751) was 6.92. For the same molecule, the GI50 (cell line ZR7530) was 7.68.
Molecule `N#Cc1c(NC(=O)c2cccc3ccccc23)sc2c1CCCC2` [TCS JNK 5a] has a GI50 (BT20 cell line, censored GI50 values) of 5.97, a GI50 [1] of 4.17 and a GI50 [2] of 5.94. The GI50 [3] was 5.48, the GI50 [4] was 5.32 and the GI50 [5] was 5.64. For the same molecule, the GI50 [6] was 4.21, the GI50 [7] was 6.08 and the GI50 [8] was 6.21. The GI50 [9] was 4.61, the GI50 [10] was 5.31 and the GI50 [11] was 5.90. The GI50 [12] was 4.66, the GI50 [13] was 5.59 and the GI50 [14] was 4.78. The GI50 [15] was 5.02, the GI50 [16] was 6.12 and the GI50 [17] was 4.37. The GI50 [18] was 5.27, the GI50 (SUM52PE cell line, censored GI50 values) was 4.86 and the GI50 [19] was 5.46. For the same molecule, the GI50 [20] was 6.31, the GI50 (UACC812 cell line, censored GI50 values) was 5.72 and the GI50 (ZR75B cell line, censored GI50 values) was 4.59. The GI50 (cell line BT20) was 5.97, the GI50 (cell line BT474) was 4.17 and the GI50 (cell line BT483) was 5.94. It also gave a GI50 (cell line CAMA1) of 5.48, a GI50 (cell line HCC38) of 5.32 and a GI50 (cell line HCC70) of 5.64. It also gave a GI50 (cell line HCC1143) of 4.21, a GI50 (cell line HCC1187) of 6.08 and a GI50 (cell line HCC1395) of 6.21. It also gave a GI50 (cell line HCC1428) of 4.61, a GI50 (cell line HCC1500) of 5.31 and a GI50 (cell line HCC1806) of 3.92. The GI50 (cell line HCC1937) was 3.88, the GI50 (cell line HCC1954) was 5.90 and the GI50 (cell line HCC2185) was 4.66. It also gave a GI50 (cell line HCC3153) of 5.59.

From US10770169B2, “Method of providing a treatment to a subject based on a dynamic pathway map” (THE REGENTS OF THE UNIVERSITY OF CALIFORNIA, priority 2010, dated 2020)
